# From PMC7395068, “The evolution of strategies to minimise the risk of human drug-induced liver injury (DILI) in drug discovery and development” (Archives of Toxicology, 2020)
# Read-outs that look alike come from different tables or passages of the source.
# What was measured:
# [1] = Plasma free fraction (fu) and unbound Cmax (Cmax,u); assay type: in vitro ADME, human; conditions: unbound plasma Cmax
# Procedure: The prediction of DILI severity was evaluated further using the 3D combined HCI assays using plasma-free fraction. The majority of fu values were obtained from literature, when unavailable in-house prediction was utilised. Unbound plasma Cmax concentrations (Cmax,u) were derived by multiplying total plasma Cmax with the corresponding free fraction (fu) for each compound.
# [2] = tested on: hLiMTs
# [3] = tested on: HepaRG spheroids
# [4] = tested on: PHH; conditions: cited from earlier work
# [5] = tested on: hLiMTs; conditions: cited from earlier work
# [6] = tested on: HepG2 C3A spheroid, BSEP, Glu/Gal in HepG2 cells, bioactivation; conditions: cited from earlier work
# [7] = read-out: Human plasma Cmax; total plasma Cmax.tot, median of 9 literature references; cited from earlier work
# [8] = plasma free fraction; cited from earlier work
# [9] = cited from earlier work
# [10] = tested on: hLiMTs; assay: Combined HCI (HCS) and cellular ATP 3D assay in hLiMTs; conditions: for hLiMTs <25x Avg Cmax ATP / hLiMTs <100x Avg Cmaxu ATP: ATP endpoint; for hLiMTs <25x Avg Cmax ATP / hLiMTs <25x Avg Cmax HCS / hLiMTs <25x Avg Cmax All: cut-off <25x Avg Cmax; for hLiMTs <100x Avg Cmaxu ATP / hLiMTs <100x Avg Cmaxu HCS / hLiMTs <100x Avg Cmaxu All: cut-off <100x Avg Cmaxu; for hLiMTs <25x Avg Cmax HCS / hLiMTs <100x Avg Cmaxu HCS: HCS endpoints; for hLiMTs <25x Avg Cmax All: all endpoints (ATP and HCS); for hLiMTs Cmax max All / hLiMTs Cmax min All / hLiMTs <10 uM All / hLiMTs <100x Avg Cmaxu All: all endpoints; for hLiMTs Cmax max All: Cmax max used; for hLiMTs Cmax min All: Cmax min used; for hLiMTs <10 uM All: cut-off <10 uM
# [11] = tested on: HepaRG spheroids; assay: Combined HCI (HCS) and cellular ATP 3D assay in HepaRG spheroids; conditions: HepaRG; for HepaRG <25x Avg Cmax ATP / HepaRG <100x Avg Cmaxu ATP: ATP endpoint; for HepaRG <25x Avg Cmax ATP / HepaRG <25x Avg Cmax HCS / HepaRG <25x Avg Cmax All: cut-off <25x Avg Cmax; for HepaRG <100x Avg Cmaxu ATP / HepaRG <100x Avg Cmaxu HCS / HepaRG <100x Avg Cmaxu All: cut-off <100x Avg Cmaxu; for HepaRG <25x Avg Cmax HCS / HepaRG <100x Avg Cmaxu HCS: HCS endpoints; for HepaRG <25x Avg Cmax All: all endpoints (ATP and HCS); for HepaRG Cmax max All / HepaRG Cmax min All / HepaRG <10 uM All / HepaRG <100x Avg Cmaxu All: all endpoints; for HepaRG Cmax max All: Cmax max used; for HepaRG Cmax min All: Cmax min used; for HepaRG <10 uM All: cut-off <10 uM; for minimal effective concentration: Homo sapiens
# [12] = cited from earlier work; remark: listed apart in the source
# [13] = tested on: human hepatocytes; conditions: cited from earlier work
# [14] = tested on: THLE or HepG2 cells, isolated mitochondria, BSEP; conditions: cited from earlier work
# [15] = tested on: PHH spheroids; conditions: cited from earlier work
# [16] = In vitro Assay, ref Proctor 2017
compound,measurement,setting,value
CN(C)C(=O)Oc1cccc([N+](C)(C)C)c1 [neostigmine],"Human plasma Cmax,u",[1],36 nM
same,DILI prediction hLiMTs (HCS-MEC),[2],-VE
same,DILI prediction HepaRG spheroids (HCS-MEC),[3],-VE
same,"PHH/100uM, Proctor (2017)","[4]; 2D PHH, ATP, IC50 threshold 100 µM, ref Proctor et al. 2017",-VE
same,PHH ATP <100uM,[4]; [16],-VE
same,"PHH/100xCmax, Proctor (2017)",[4],-VE
same,hLiMTs ATP <100uM,[5]; [16],-VE
same,"hLiMTs/100xCmax, Proctor (2017)",[5],-VE
same,"hLiMTs/100uM, Proctor (2017)","[5]; hLiMTs, ATP, IC50 threshold 100 µM, ref Proctor et al. 2017",-VE
same,"Bayesian Machine Learning DILI prediction, Williams (2019)","[6]; Bayesian modeling, ref Williams et al. 2019",-VE
same,Bayesian Machine Learning,[6]; ref Williams 2019,-VE
same,Cmax,[7],45 nM
same,fu,[8],0.800
same,Assigned DILI category,"[9]; Chen et al. 2016 or literature alignment, ref Chen et al. 2016",1
same,In vivo DILI,[9]; […],-VE
same,In vivo DILI,[9]; ref Proctor 2017,-VE
same,In vivo DILI,[9]; ref Williams 2019,-VE
same,hLiMTs <25x Avg Cmax ATP,[10],-ve
same,hLiMTs <100x Avg Cmaxu ATP,[10],-ve
same,hLiMTs <25x Avg Cmax HCS,[10],-ve
same,hLiMTs <100x Avg Cmaxu HCS,[10],-ve
same,hLiMTs <25x Avg Cmax All,[10],-ve
same,hLiMTs Cmax max All,[10],-ve
same,hLiMTs Cmax min All,[10],-ve
same,hLiMTs <10 uM All,[10],-ve
same,hLiMTs <100x Avg Cmaxu All,[10],-ve
same,HepaRG <25x Avg Cmax ATP,[11],-ve
same,HepaRG <100x Avg Cmaxu ATP,[11],-ve
same,HepaRG <25x Avg Cmax HCS,[11],-ve
same,HepaRG <100x Avg Cmaxu HCS,[11],-ve
same,HepaRG <25x Avg Cmax All,[11],-ve
same,HepaRG Cmax max All,[11],-ve
same,HepaRG Cmax min All,[11],-ve
same,HepaRG <10 uM All,[11],-ve
same,HepaRG <100x Avg Cmaxu All,[11],-ve
CC(COc1ccccc1)N(CCCl)Cc1ccccc1 (stereo not drawn) [phenoxybenzamine],"Human plasma Cmax,u",[1],2 nM
same,DILI prediction hLiMTs (HCS-MEC),[2],-VE
same,DILI prediction HepaRG spheroids (HCS-MEC),[3],-VE
same,"DILI +VE (5-8), DILI -VE (-4)",[12]; in vivo,-VE
same,DILI severity category (Chen et al. [2016]),[12]; in vivo,No
same,"DILI in vitro assay prediction, Xu (2008)",[13],-VE
same,Structural based (HCI),[13],-VE
same,Partition Hybrid HRM Score,[14],+VE
same,"Partition Hybrid HRM Score ≥4, Aleo (2019)",[14],+VE (key: +VE: Partition Hybrid HRM Score ≥4)
same,"Partition Hybrid HRM Score ≥8, Aleo (2019)",[14],-VE
same,Ro2 Hybrid HRM Score,[14],+VE
same,"Rule of Two hybrid HRM Score ≥3, Aleo (2019)",[14],+VE (key: +VE: Rule of Two hybrid HRM Score ≥3)
same,"Rule of Two hybrid HRM Score ≥8, Aleo (2019)",[14],-VE
same,PHH ATP <100uM,[4],-VE
same,"PHH/100uM, Proctor (2017)",[4],-VE
same,"PHH/100xCmax, Proctor (2017)",[4],-VE
same,hLiMTs ATP <100uM,[5],-VE
same,"hLiMTs/100uM, Proctor (2017)",[5],-VE
same,"hLiMTs/100xCmax, Proctor (2017)",[5],-VE
same,"DILI in vitro assay prediction, Vorrink (2018)",[15],-VE
same,hLiMTs ATP <20 x Cmax,[15],-VE
same,Bayesian Machine Learning,[6],-VE
same,"Bayesian Machine Learning DILI prediction, Williams (2019)",[6],-VE
same,Cmax,[7],197 nM
same,fu,[8],0.009
same,Assigned DILI category,[9]; in vivo,1
same,In vivo DILI,[9]; in vivo,-VE
same,AC50,"[10]; Homo sapiens, read-out: ATP endpoint AC50",26.9 µM
same,minimal effective concentration,"[10]; Homo sapiens, read-out: ATP endpoint MEC",10.7 µM
same,minimal effective concentration,"[10]; Homo sapiens, read-out: HCS endpoint MEC",15.6 µM
same,hLiMTs <25x Avg Cmax ATP,[10],-ve
same,hLiMTs <100x Avg Cmaxu ATP,[10],-ve
same,hLiMTs <25x Avg Cmax HCS,[10],-ve
same,hLiMTs <100x Avg Cmaxu HCS,[10],-ve
same,hLiMTs <25x Avg Cmax All,[10],-ve
same,hLiMTs Cmax max All,[10],-ve
same,hLiMTs Cmax min All,[10],-ve
same,hLiMTs <10 uM All,[10],-ve
same,hLiMTs <100x Avg Cmaxu All,[10],-ve
same,HepaRG <25x Avg Cmax ATP,[11],-ve
same,HepaRG <100x Avg Cmaxu ATP,[11],-ve
same,HepaRG <25x Avg Cmax HCS,[11],-ve
same,HepaRG <100x Avg Cmaxu HCS,[11],-ve
same,HepaRG <25x Avg Cmax All,[11],-ve
same,HepaRG Cmax max All,[11],-ve
same,HepaRG Cmax min All,[11],-ve
same,HepaRG <10 uM All,[11],-ve
same,HepaRG <100x Avg Cmaxu All,[11],-ve
same,minimal effective concentration,[11]; read-out: ATP endpoint MEC,25.3 µM
same,minimal effective concentration,[11]; read-out: HCS endpoint MEC,53.8 µM
CC(C)[N+](C)(CCOC(=O)C1c2ccccc2Oc2ccccc21)C(C)C [propantheline],hLiMTs <10 uM All,[2],-ve
same,hLiMTs Cmax max All,[2]; human,-ve
same,hLiMTs Cmax min All,[2]; human,-ve
same,HepaRG <10 uM All,[3],-ve
same,HepaRG Cmax max All,[3]; human,-ve
same,HepaRG Cmax min All,[3]; human,-ve
same,DILI severity category,[12]; in vivo,No
same,"DILI +VE (5-8), DILI -VE (-4)",[12]; ref Chen 2016,-VE
same,DILI severity category,[12]; ref Chen 2016,vNo-DILI-Concern
same,PHH ATP <100uM,[4]; [16],-VE
same,hLiMTs ATP <100uM,[5]; [16],-VE
same,Bayesian Machine Learning,[6]; ref Williams 2019,-VE
same,In vivo DILI,[9]; ref Proctor 2017,-VE
same,In vivo DILI,[9]; ref Williams 2019,-VE
